Reference: US20230103774A1, “USE OF KAURANE COMPOUNDS IN PREPARATION OF DRUG FOR PREVENTION AND TREATMENT OF SEPSIS AND MULTIPLE ORGAN DAMAGE” (KEY-PHARMA BIOMEDICAL INC., priority 2020, published 2023)
“Also recorded” adds a separate entry of the source.

Legend:
LPS-induced septic mice [1] = test: spleen/body weight ratio after LPS; assay type: in vivo; settings: even lower than that of the Control group
Description: The fur color, consciousness, physical activity, diet, etc. of the mice were observed, and the heart, liver, spleen, lung and kidney of the mice were weighed 6 hours after intraperitoneal injection of LPS.

[2] = under certain conditions in vitro; cited from earlier work
LPS-induced septic mice [3] = test: cardiac function of LPS-induced septic mice by echocardiography (Vevo2100); assay type: in vivo; settings: for ejection fraction (EF) / fractional shortening (FS): 6 h after i.p. LPS, versus LPS group
Text: Six hours after intraperitoneal injection of LPS, mice in each group were weighed and anesthetized, and the cardiac function of the mice was detected by Vevo2100 imaging system. The mice were put into the recumbent position and fixed on a constant temperature heating plate under heart rate of 400-500 times per minute. The limbs were fixed on the four metal poles with tape. The ultrasound probe was placed in the left thoracic region of the mouse, and the short axis of the parasternal left ventricle was obtained by 2D ultrasound. The left ventricular motion was recorded at the papillary muscle level by M-ultrasound, and heart rate (HR), left ventricular systolic diameter (LVID: FS), left ventricular diastolic diameter (LVID: d), left ventricular systolic diameter (LVID: FS), left ventricular diastolic diameter (LVID: Fd), and left ventricular diastolic […] thickness (LVPWF: FdF) were measured. Using Vevo2100 small animal ultrasound system software to process and analyze the acquired images. Determination of mouse plasma myocardial injury indexes (LDH and CK)
Ejection Fractions (EF), refers to the percentage of cardiac stroke volume in ventricular end-diastolic volume, which is an indicator of myocardial contractility. […] The left ventricular short-axis shortening rate (fractional shortening, FS) refers to the ratio of the inner diameter of the ventricle at the end systole to the inner diameter of the ventricular end diastole, and also reflects the systolic function of the heart (FS=(left ventricular end-diastolic diameter (LVDd)−Left ventricular end-systolic diameter (LVDs))/left ventricular end-diastolic diameter×100%).

HIF-1α = HIF-1α expression after LPS and macrophage regulation
[4] = test system: primary peritoneal macrophages; test: flow cytometry of M1/M2 primary peritoneal macrophages of LPS induced septic mice; assay type: in vivo; settings: 6 hours after 20 mg/kg LPS i.p., versus LPS group
Description: This example illustrates the effect of compound A on macrophage polarization. • (1) Grouping of experimental animals: 6-8 week old Balb/c male mice were randomly divided into 4 groups after one week of adaptive feeding, 10 mice in each group, namely the Control group, the LPS group, the compound A group and the dexamethasone group. The LPS group, compound A group and dexamethasone group were given intraperitoneally injection of a 20 mg/kg of LPS. […]

TNF-α, IL-6 and IL-1β = test: pro-inflammatory cytokine expression in plasma of septic mice; assay type: in vivo; settings: 6 h after intraperitoneal injection of LPS; different doses
[5] = test system: LPS-induced septic Balb/C mice; test: mortality of LPS-induced septic Balb/C mice after intraperitoneal compound A; assay type: in vivo; settings: for improved the survival rate of mice: P<0.01
Description: This example mainly observes the effect of intraperitoneal injection of different doses of Compound A on the mortality of LPS-septic Balb/C mice.
To observe the effect of intraperitoneal injection of different doses of compound A on the mortality of LPS-induced sepsis mice.
The mice were randomly divided into 6 groups: • (1) Control group: intraperitoneal injection of physiological saline (solvent) (0.1 ml/10 g) once a day for three consecutive days, 1 hour after intraperitoneal injection on the third day, intraperitoneal injection of physiological saline (0.2 ml/10 g); • (2) LPS group: intraperitoneal injection of saline (0.1 ml/10 g), 1 time/d for 3 consecutive days, 1 hour after intraperitoneal injection on the third day, intraperitoneal injection of LPS (20 mg/kg, 0.1 ml/10 g). • (3) Compound A (5 mg/kg)+LPS group: intraperitoneal injection of compound A (5 mg/kg, 0.1 ml/10 g), 1 time/d for 3 consecutive days, 1 hour after intraperitoneal injection on the third day, intraperitoneal injection LPS (20 mg/kg, 0.1 ml/10 g). • (4) Compound A (10 mg/kg)+LPS group: intraperitoneal injection of compound A (10 mg/kg, 0.1 ml/10 g), 1 time/d for 3 consecutive days, 1 hour after intraperitoneal injection on the third day, intraperitoneal injection LPS (20 mg/kg, 0.1 ml/10 g). • (5) Compound A (20 mg/kg)+LPS group: intraperitoneal injection of compound A (20 mg/kg, 0.1 ml/10 g), 1 time/d for 3 consecutive days, 1 hour after intraperitoneal injection on the third day, intraperitoneal injection LPS (20 mg/kg, 0.1 ml/10 g). • (6) Compound A (60 mg/kg)+LPS group: intraperitoneal injection of compound A (60 mg/kg, 0.1 ml/10 g), 1 time/d for 3 consecutive days, 1 hour after intraperitoneal injection on the third day, intraperitoneal injection LPS (20 mg/kg, 0.1 ml/10 g).
After intraperitoneal injection of LPS, the survival of mice in each group was observed every 12 h for six consecutive days.
Based on the previously reports, the dose of 5 mg/kg for adults is an acceptable and safe dose, and the maximum blood concentration reaches 20 μM, which is equivalent to 45 mg/kg in mice. Accordingly, 10 mg/kg STV-Na was employed for further studies.

mitochondria = test: mitochondrial protection during sepsis; settings: administration during sepsis
[6] = test system: Animals that survived sepsis; test: fibrosis of affected organs after recovery from sepsis; assay type: in vivo
[7] = test system: macrophage M1 and M2 in cardiac tissue; test: ROS and M1/M2 macrophages in heart of septic mice; assay type: in vivo
septic lung tissues = test: acute lung injury caused by sepsis (lung tissue, blood oxygen saturation); assay type: in vivo; settings: septic mice
LPS-induced septic mice [8] = test: liver function of LPS-induced septic mice (plasma ALT, AST, SOD, histopathology); assay type: in vivo
Text: The prepared plasma of each group was taken to determine the levels of alanine aminotransferase (ALT), aspartate aminotransferase (AST) and superoxide dismutase (SOD) in plasma by a microplate reader according to the manufacture's instruction.

solubility = assay type: physicochemical; settings: sodium salt versus compound A
[9] = test system: lactate dehydrogenase (LDH) and creatine kinase (CK) in plasma; test: plasma myocardial injury indexes LDH and CK; assay type: in vivo; settings: LPS-induced septic mice, versus LPS group, p<0.01
Description: Serum lactate dehydrogenase (LDH) and creatine kinase (CK) were determined according to the istructions provided by Nanjing Jiancheng Biotechnology Co., Ltd.

[10] = test system: white blood cells, neutrophils and monocytes; test: white blood cells, neutrophils and monocytes in LPS induced septic mice; assay type: in vivo; settings: versus LPS group
[11] = test system: LPS-induced lung injury mice; test: lung function by whole body plethysmography (Penh, EF50, TV); assay type: in vivo
Description: The lung function of each group of mice was measured at 6 h. Mice were placed in a closed chamber of a whole body plethysmograph (BUXCO, USA), and the plethysmographic chamber was connected to a sensor. […] In this experiment, we used Buxco's pulmonary function testing system to measure and record the 50% tidal expiratory volume, tidal volume, and changes in airway responsiveness in each group of mice by whole body plethysmography to assess lung function. This method offers a real-time lung function of mice under non-invasive conditions. Penh is a pulmonary function parameter related to airway resistance and intrapleural pressure, and Penh is used as an index to evaluate airway response.

LPS-induced septic mice [12] = test: renal function of LPS-induced septic mice (plasma BUN, Crea, histopathology); assay type: in vivo
Text: The prepared plasma of each group was taken to determine the levels of urea nitrogen (BUN) and creatinine (Crea) in plasma by a microplate reader following the manufacture's instruction.

[13] = dose of 5 mg/kg for adults; cited from earlier work
[14] = pretreated septic mice versus LPS group
[15] = 6 hours after LPS injection, versus LPS group, p<0.01

## C[C@@H]1C[C@H]2[C@@H]3CCC4=CC(=O)C=C[C@]4(C)[C@@]3(F)[C@@H](O)C[C@]2(C)[C@@]1(O)C(=O)CO [dexamethasone]
LPS-induced septic mice [1]
  spleen/body weight ratio: significantly reduced

## C=C1C[C@@]23CC[C@H]4[C@@](C)(CCC[C@@]4(C)C(=O)O)[C@@H]2CC[C@]1(O)C3 [Compound B, ENT13Hyrdoxyaur-16-EN-18-Oic acid]
[2]
  mutagenicity: mutagenic

## C[C@@]12CC[C@@H]3[C@@](CC[C@H]4[C@@]3(C)CCC[C@@]4(C)C(=O)O)(CC1=O)C2 [Compound A, (4α, 8β, 13 β)-13-METHYL-16-OXO-17-Norkauran-18-OIC acid]
LPS-induced septic mice [3]
  ejection fraction (EF): significantly improved
  fractional shortening (FS): significantly higher
LPS-induced septic mice [3]; listed as STV-Na
  ejection fraction (EF): markedly increased
  fractional shortening (FS): markedly increased
LPS-induced septic mice [3]; [14]
  CO: markedly increased
  SV: markedly increased
HIF-1α; after LPS injection
  HIF-1α expression: reduced
HIF-1α; with DMOG, a competitive inhibitor of HIF-1α prolyl hydroxylase
  metabolic regulation effect on macrophages: abolished
[4]
  M1 peritoneal macrophages (F4/80+CD11c+ CD206−): significantly inhibit; also recorded: significantly reduced
  M2 peritoneal macrophages (F4/80+CD11c− CD206+): significantly inhibit; also recorded: significantly reduced
TNF-α, IL-6 and IL-1β
  TNF-α, IL-1β and IL-6 in plasma: dose-dependently decreased
[5]; 5 mg/kg i.p. 1 time/d for 3 days, then LPS 20 mg/kg i.p., no significant difference with the LPS group (p>0.05)
  survival of mice: all mice in the 5 mg/kg compound A group died
[5]; 10 mg/kg i.p. 1 time/d for 3 days, then LPS 20 mg/kg i.p.
  improved the survival rate of mice: 52%
[5]; 20 mg/kg i.p. 1 time/d for 3 days, then LPS 20 mg/kg i.p.
  improved the survival rate of mice: 67%
[5]; 10-20 mg/kg, large dose of LPS i.p., up to more than two-thirds surviving
  survival rate of mice: significantly improved
mitochondria
  cytochrome C release: reduce
  inflammation cytokine TNF-α and IL-1β: inhibiting
  mitochondrial membrane potential: increase
  number of mitochondria: increase
  production of superoxide such as NO in cells: reduce
[6]
  fibrosis and collagen deposition in the lungs, heart, liver, and kidney: marked reduction
[7]
  level of ROS in heart: inhibited
[7]; M1: IL-1β, McP1, CD11c, M2: Ym1, CD206
  biomarkers of M1 and M2 macrophages and number of macrophages in cardiac tissue: significantly decreased
Septic lung tissues
  blood oxygen saturation: significantly increased
  lung function / acute lung injury and failure caused by sepsis: significantly recovered
  lung inflammation: significantly reduced
  lung tissue structure: basically normal
LPS-induced septic mice [8]; LPS-induced septic mice
  alanine aminotransferase (ALT) in plasma: significantly decreased
  aspartate aminotransferase (AST) in plasma: significantly decreased
  superoxide dismutase (SOD) in plasma: significantly decreased
LPS-induced septic mice [8]; septic animals
  infiltration of inflammatory cells in liver (histopathological staining): reduced
solubility
  solubility: better solubility
[9]
  CK level in plasma: significantly decreased
  LDH level in plasma: downward trend
[9]; listed as STV-Na
  LDH level in plasma: significantly decreased
[10]
  level of white blood cells, neutrophils and monocytes: significantly reduced
[11]; [15]
  EF50 (expiratory flow at 50% tidal volume): significantly higher
  TV (tidal volume): significantly higher
[11]; septic mice
  airway reactivity (Penh): returned to normal
LPS-induced septic mice [12]; LPS-induced septic mice
  creatinine (Crea) in plasma: significantly reduced
  urea nitrogen (BUN) in plasma: significantly decreased
LPS-induced septic mice [12]; LPS-induced septic mice, listed as compound A
  urea nitrogen (BUN) in plasma: significantly reduced
LPS-induced septic mice [12]; septic animals
  lesions in the glomerulus and renal tubules (histopathological staining): milder than those in the model group
[13]
  maximum blood concentration: 20 µM
